Data taken from US9174973B2, “Crystalline forms of azilsartan and preparation and uses thereof” (SUNSHINE LAKE PHARMA CO., LTD., priority 2011, dated 2015).

Experiment: solubility test of crystalline forms in 0.1M HCl (Chinese Pharmacopoeia 2010)
Assay type: physicochemical
Details: 300 mg sample in 6 mL 0.1M HCl, 25° C.±2° C., 30 minutes, observed with eyes
Experimental: The solubility of crystalline forms A, B, C and D was measured in accordance with the solubility test described in “Chinese Pharmacopoeia 2010”, Topic and Requirement 15. A crystalline form of azilsartan was grinded into powder. The powder (300 mg) was added to 6 ml of 0.1M HCl as the solvent at 25° C.±2° C. […] The total test time was 30 minutes. The solid was deemed as dissolved when no solid was detected in the mixture by human eyes. The solubility data of crystalline forms A, B, C and D of azilsartan are as shown below.

Result (solubility): dissolved
Compound: CCOc1nc2cccc(C(=O)O)c2n1Cc1ccc(-c2ccccc2-c2noc(=O)[nH]2)cc1 [Form D]
